In assay [1] the target is T1, Neutrophil elastase (Homo sapiens, UniProt P08246).
T1 sequence (P08246 whole entry): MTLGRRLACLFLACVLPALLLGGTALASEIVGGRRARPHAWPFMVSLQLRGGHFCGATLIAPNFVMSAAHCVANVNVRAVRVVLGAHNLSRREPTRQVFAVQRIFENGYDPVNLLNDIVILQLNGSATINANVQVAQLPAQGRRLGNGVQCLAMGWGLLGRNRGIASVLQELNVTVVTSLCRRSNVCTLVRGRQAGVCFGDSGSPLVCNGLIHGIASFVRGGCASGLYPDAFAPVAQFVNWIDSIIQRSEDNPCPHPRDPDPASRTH
As to the kind of experiment: In vitro inhibition of human leukocyte elastase.

In another assay the target is Pancreatic elastase (Sus scrofa, UniProt P08419+P00772). As to the kind of experiment: Inhibitory activity against porcine pancreatic elastase using Suc-Ala-Ala-Ala-pNA (416 uM) as substrate. It counts as protein assay.
Assay [2] concerns the target T2, Chymotrypsinogen A (Bos taurus, UniProt P00766). As to the kind of experiment: Inhibitory activity against chymotrypsin using Suc-Ala-Ala-Pro-Phe-pNA (416 uM) as substrate;No Inhibition. Also noted: species or system Sus scrofa.
Assay [3] deals with T2, Chymotrypsinogen A. In words: Inhibitory activity against chymotrypsin using Suc-Ala-Ala-Pro-Phe-pNA (416 uM) as substrate; No Inhibition. More on the design: species or system Sus scrofa.
The target in assay [4] is T1, Neutrophil elastase. In words: Inhibitory activity against human leukocyte elastase using MeO-Suc-Ala-Ala-Pro-Val-pNA (416 uM) as substrate;No Inhibition.
Assay [5] addresses T1, Neutrophil elastase. In words: Inhibitory activity against human leukocyte elastase using MeO-Suc-Ala-Ala-Pro-Val-pNA (416 uM) as substrate.
Assay [6] deals with T2, Chymotrypsinogen A. As to the kind of experiment: Inhibitory activity against chymotrypsin using Suc-Ala-Ala-Pro-Phe-pNA (416 uM) as substrate. More on the design: species or system Sus scrofa.

Among the data in ChEMBL document CHEMBL1127279, “1,3-Oxazino[4,5-b]indole-2,4-(1H,9H)-diones and 5,6-dimethylpyrrolo-[2,3-d]-1,3-oxazin-2,4-(1H,7H)-diones as serine protease inhibitors” (Bioorg Med Chem Lett, 1994) are IC50 values, retold here.

As usually defined, the IC50 is the concentration that inhibits the measured activity by half.

In turn, `CCCn1c2ccc(OC)cc2c2c(=O)oc(=O)[nH]c21` came in with a half-inhibitory concentration (IC50) on Neutrophil elastase [1] above 1000 µM.

On to `CC(=O)Oc1ccc2c(c1)c1c(=O)oc(=O)[nH]c1n2CCCc1ccccc1`, for which the results for the 50% inhibitory concentration (IC50) against Neutrophil elastase [1] and against Pancreatic elastase were 305 µM and above 1000 µM, respectively.

Molecule `CC(=O)Oc1ccc2c(c1)c1c(=O)oc(=O)[nH]c1n2Cc1ccccc1` came in with an IC50 on Neutrophil elastase [1] of 75 µM.

Regarding `CC(=O)Oc1ccc2c(c1)c1c(=O)oc(=O)[nH]c1n2C1CCCCC1`, the IC50 on Neutrophil elastase [1] was 454 µM.

As to `CCCCn1c2ccc(OC(C)=O)cc2c2c(=O)oc(=O)[nH]c21`, the half-maximal inhibitory concentration (IC50) against Neutrophil elastase [1] is 810 µM; at Pancreatic elastase, above 1000 µM.

In turn, `COC(Cn1c2ccc(OC(C)=O)cc2c2c(=O)oc(=O)[nH]c21)OC` had an IC50 against Neutrophil elastase [1] of 742 µM.

Turning to `COCCn1c2ccc(OC(C)=O)cc2c2c(=O)oc(=O)[nH]c21`, the IC50 entry against Chymotrypsinogen A [2] is “Not Active”; at Neutrophil elastase [1] it was above 1000 µM.

For the molecule `COC(Cn1c(C)c(C)c2c(=O)oc(=O)[nH]c21)OC`, the IC50 result against Chymotrypsinogen A [3] and against Neutrophil elastase [4] was “Not Active” in each case.

Take `Cc1c(C)n(Cc2ccccn2)c2[nH]c(=O)oc(=O)c12`: the IC50 result against Neutrophil elastase [4] is “Not Active”.

For the molecule `COc1ccc2c(c1)c1c(=O)oc(=O)[nH]c1n2CCc1ccccc1`, the IC50 against Neutrophil elastase [5] is above 1000 µM.

At Neutrophil elastase [1], `CCCCn1c(C)c(C)c2c(=O)oc(=O)[nH]c21` displayed a half-inhibitory concentration (IC50) above 1000 µM.

Take `CCCn1c(C)c(C)c2c(=O)oc(=O)[nH]c21`: the IC50 entry at Chymotrypsinogen A [3] and against Neutrophil elastase [4] was “Not Active” throughout.

At Neutrophil elastase [1], `COc1ccc2c(c1)c1c(=O)oc(=O)[nH]c1n2Cc1ccccc1` gave a 50% inhibitory concentration (IC50) above 1000 µM.

Consider `CC(=O)Oc1ccc2c(c1)c1c(=O)oc(=O)[nH]c1n2CCc1ccccc1`, for which the IC50 is 92 µM on Neutrophil elastase [1] and 833 µM against Pancreatic elastase.

As to `Cc1c(C)n(CCCc2ccccc2)c2[nH]c(=O)oc(=O)c12`, the IC50 on Neutrophil elastase [4] (read-out: IC50) was 895 µM.

`COc1ccc2c(c1)c1c(=O)oc(=O)[nH]c1n2CC(OC)OC`: on Neutrophil elastase [1], the 50% inhibitory concentration (IC50) is above 1000 µM.

On to `COCCn1c2ccc(OC)cc2c2c(=O)oc(=O)[nH]c21`, for which the IC50 result on Chymotrypsinogen A [3] is “Not Active”; against Neutrophil elastase [1] it was above 1000 µM.

Take `Cc1c(C)n(Cc2ccccc2)c2[nH]c(=O)oc(=O)c12`: on Neutrophil elastase [4], the 50% inhibitory concentration (IC50) result is recorded as “Not Active”.

Consider `CC(=O)Oc1ccc2c(c1)c1c(=O)oc(=O)[nH]c1n2Cc1ccccn1`, for which the half-maximal inhibitory concentration (IC50) on Neutrophil elastase [1] came to 292 µM.

On to `Cc1c(C)n(CCc2ccccc2)c2[nH]c(=O)oc(=O)c12`, for which, at Neutrophil elastase [4], the half-inhibitory concentration (IC50) result is listed as “Not Active”.

With `COc1ccc2c(c1)c1c(=O)oc(=O)[nH]c1n2Cc1ccccn1`, the figures for the half-maximal inhibitory concentration (IC50) against Chymotrypsinogen A [6] and against Neutrophil elastase [1] were 512 µM and above 1000 µM, respectively.

At Neutrophil elastase [5], `COc1ccc2c(c1)c1c(=O)oc(=O)[nH]c1n2CCCc1ccccc1` displayed a half-inhibitory concentration (IC50) of 989 µM.

As to `Cc1c(C)n(C2CCCCC2)c2[nH]c(=O)oc(=O)c12`, on Neutrophil elastase [1], the half-inhibitory concentration (IC50) was above 1000 µM.

With `CCCn1c2ccc(OC(C)=O)cc2c2c(=O)oc(=O)[nH]c21`, the IC50 at Neutrophil elastase [1] was found to be 665 µM.

As to `COc1ccc2c(c1)c1c(=O)oc(=O)[nH]c1n2C1CCCCC1`, the IC50 against Neutrophil elastase [1] is above 1000 µM.

In turn, `CCCCn1c2ccc(OC)cc2c2c(=O)oc(=O)[nH]c21` yielded an IC50 against Neutrophil elastase [1] above 1000 µM.

`COCCn1c(C)c(C)c2c(=O)oc(=O)[nH]c21`: the half-maximal inhibitory concentration (IC50) entry on Chymotrypsinogen A [3] and on Neutrophil elastase [4] was “Not Active” throughout.
